According to ChEMBL document CHEMBL2203020, “Development of Synthetic Aminopeptidase N/CD13 Inhibitors to Overcome Cancer Metastasis and Angiogenesis” (ACS Med Chem Lett, 2012):
pIC50, pKi: −log10 of the molar value. Activity calls are given as the source filed them. The calls are words filed in the database; no cut-off is given here.

Assays:
Aminopeptidase N [1] = molecular target: T1, Aminopeptidase N (Sus scrofa, UniProt P15145); test: Inhibition of APN in porcine kidney microsome assessed as inhibition of L-Leu-p-nitroanilide substrate hydrolysis incubated for 5 mins before substrate addition by UV-Vis spectrophotometric analysis; assay type: microsomes
T1 sequence (P15145 whole entry): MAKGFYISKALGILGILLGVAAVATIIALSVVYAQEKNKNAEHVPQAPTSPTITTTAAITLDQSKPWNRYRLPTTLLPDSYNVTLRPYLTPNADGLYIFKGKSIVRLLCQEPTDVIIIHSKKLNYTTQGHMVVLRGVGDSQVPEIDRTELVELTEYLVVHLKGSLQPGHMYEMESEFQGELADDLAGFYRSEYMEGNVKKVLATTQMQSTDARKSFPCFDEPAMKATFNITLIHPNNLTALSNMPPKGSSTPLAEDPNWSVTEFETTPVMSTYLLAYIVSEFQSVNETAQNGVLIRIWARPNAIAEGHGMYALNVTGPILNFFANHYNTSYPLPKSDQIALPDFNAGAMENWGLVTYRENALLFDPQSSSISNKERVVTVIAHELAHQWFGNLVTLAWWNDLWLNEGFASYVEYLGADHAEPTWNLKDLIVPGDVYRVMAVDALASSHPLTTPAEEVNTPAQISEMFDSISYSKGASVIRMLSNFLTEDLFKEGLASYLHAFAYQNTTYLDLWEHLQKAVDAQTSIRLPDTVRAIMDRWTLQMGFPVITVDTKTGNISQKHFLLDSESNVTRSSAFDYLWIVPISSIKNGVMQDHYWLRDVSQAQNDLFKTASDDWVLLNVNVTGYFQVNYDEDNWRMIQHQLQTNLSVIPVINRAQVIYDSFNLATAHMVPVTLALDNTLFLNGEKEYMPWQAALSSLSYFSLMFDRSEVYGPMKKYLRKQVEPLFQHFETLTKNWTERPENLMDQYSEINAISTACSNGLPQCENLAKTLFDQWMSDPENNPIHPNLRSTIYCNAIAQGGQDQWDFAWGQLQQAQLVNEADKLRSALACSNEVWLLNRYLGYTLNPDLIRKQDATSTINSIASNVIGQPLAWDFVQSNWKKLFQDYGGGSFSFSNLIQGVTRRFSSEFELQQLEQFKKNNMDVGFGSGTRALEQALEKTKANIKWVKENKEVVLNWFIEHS

ES2 [2] = test: Inhibition of human ES2 cell migration at 150 uM by crystal violet staining based microscopic analysis; assay type: functional
[3] = Cytotoxicity against human ES2 cells assessed as cell growth inhibition rate at 5 ug/ml after 24 hrs by MTT assay; assay type: cell-based; conditions: read-out: GI
B16-BL6 [4] = test: Antiangiogenic activity against mouse B16-BL6 cells xenografted in C57BL/6 mouse assessed as decrease in number of vessels oriented towards the tumor mass at 100 mg/kg/day, ip administered for 4 days measured on day 5 by dissecting microscopic analysis; assay type: functional, organism-based
[5] = Cytotoxicity against mouse B16-BL6 cells assessed as cell growth inhibition after 24 hrs by MTT assay; assay type: cell-based
[6] = Cytotoxicity against human ES2 cells assessed as cell growth inhibition rate at 50 ug/ml after 24 hrs by MTT assay; assay type: cell-based; conditions: read-out: GI
[7] = molecular target: 72 kDa type IV collagenase (Homo sapiens, UniProt P08253); test: Inhibition of recombinant MMP-2 using succinylated gelatin as substrate incubated for 10 mins before addition of substrate measured after 60 mins by UV-Vis spectrophotometric analysis
Sequence of 72 kDa type IV collagenase (P08253 whole entry): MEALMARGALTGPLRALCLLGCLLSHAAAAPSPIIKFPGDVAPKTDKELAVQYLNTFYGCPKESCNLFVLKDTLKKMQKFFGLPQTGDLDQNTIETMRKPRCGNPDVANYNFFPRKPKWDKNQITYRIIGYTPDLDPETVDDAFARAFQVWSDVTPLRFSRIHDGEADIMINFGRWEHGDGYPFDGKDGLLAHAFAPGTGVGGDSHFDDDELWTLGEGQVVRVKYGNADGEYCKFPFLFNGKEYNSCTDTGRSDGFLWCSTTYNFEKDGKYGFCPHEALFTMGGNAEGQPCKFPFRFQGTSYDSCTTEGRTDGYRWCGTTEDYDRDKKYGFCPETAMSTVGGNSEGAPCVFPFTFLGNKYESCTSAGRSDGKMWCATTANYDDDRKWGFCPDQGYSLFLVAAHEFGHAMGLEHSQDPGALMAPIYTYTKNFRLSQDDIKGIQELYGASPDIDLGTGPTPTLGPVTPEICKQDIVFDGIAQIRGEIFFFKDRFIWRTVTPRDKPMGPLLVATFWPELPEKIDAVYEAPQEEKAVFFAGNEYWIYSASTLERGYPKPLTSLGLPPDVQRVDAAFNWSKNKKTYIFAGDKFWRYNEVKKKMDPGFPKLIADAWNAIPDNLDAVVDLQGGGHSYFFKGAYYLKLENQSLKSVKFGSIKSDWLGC

Aminopeptidase N [8] = molecular target: Aminopeptidase N (Homo sapiens, UniProt P15144); test: Inhibition of APN in human ES2 cell surface assessed as inhibition of L-Leu-p-nitroanilide substrate hydrolysis incubated for 5 mins before substrate addition by UV-Vis spectrophotometric analysis
Sequence of Aminopeptidase N (Homo sapiens, UniProt P15144) (P15144 whole entry): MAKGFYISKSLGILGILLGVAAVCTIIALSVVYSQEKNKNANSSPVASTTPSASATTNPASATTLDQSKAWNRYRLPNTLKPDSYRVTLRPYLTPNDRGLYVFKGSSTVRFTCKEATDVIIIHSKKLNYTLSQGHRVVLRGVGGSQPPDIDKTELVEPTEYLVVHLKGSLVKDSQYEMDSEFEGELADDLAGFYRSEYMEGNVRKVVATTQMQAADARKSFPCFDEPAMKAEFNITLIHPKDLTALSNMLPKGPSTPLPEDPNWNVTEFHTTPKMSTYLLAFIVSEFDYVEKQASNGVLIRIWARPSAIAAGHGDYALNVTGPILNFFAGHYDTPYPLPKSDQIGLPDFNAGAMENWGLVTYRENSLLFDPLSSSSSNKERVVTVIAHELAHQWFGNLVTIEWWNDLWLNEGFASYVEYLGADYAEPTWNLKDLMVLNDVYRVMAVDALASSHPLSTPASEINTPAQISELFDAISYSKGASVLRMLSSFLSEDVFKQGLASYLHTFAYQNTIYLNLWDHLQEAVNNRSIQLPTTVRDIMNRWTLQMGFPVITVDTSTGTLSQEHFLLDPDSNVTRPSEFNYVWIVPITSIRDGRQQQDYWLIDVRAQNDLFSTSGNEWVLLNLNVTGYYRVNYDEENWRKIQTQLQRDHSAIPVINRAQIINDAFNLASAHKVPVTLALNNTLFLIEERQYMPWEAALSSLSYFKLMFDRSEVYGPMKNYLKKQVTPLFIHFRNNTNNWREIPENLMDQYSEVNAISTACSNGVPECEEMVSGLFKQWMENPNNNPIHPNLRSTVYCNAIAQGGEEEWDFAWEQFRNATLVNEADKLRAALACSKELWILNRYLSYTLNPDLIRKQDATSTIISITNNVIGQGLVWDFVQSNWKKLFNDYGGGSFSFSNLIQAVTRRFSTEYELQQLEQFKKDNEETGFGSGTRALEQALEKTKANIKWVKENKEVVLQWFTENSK

ES2 [9] = test: Inhibition of human ES2 cell invasion after 8 hrs by Matrigel invasion assay; assay type: functional, cell-based
B16-BL6 [10] = test: Antimetastatic activity against mouse B16-BL6 cells xenografted in C57BL/6 mouse assessed as decrease in number of pulmonary metastatic colonies at 100 mg/kg/day, ip administered for 13 days measured on day 14; assay type: functional, organism-based
Aminopeptidase N [11] = molecular target: T2, Aminopeptidase N (Mus musculus, UniProt P97449); test: Inhibition of APN in mouse B16-BL6 cell surface assessed as inhibition of L-Leu-p-nitroanilide substrate hydrolysis incubated for 5 mins before substrate addition by UV-Vis spectrophotometric analysis
T2 sequence (P97449 whole entry): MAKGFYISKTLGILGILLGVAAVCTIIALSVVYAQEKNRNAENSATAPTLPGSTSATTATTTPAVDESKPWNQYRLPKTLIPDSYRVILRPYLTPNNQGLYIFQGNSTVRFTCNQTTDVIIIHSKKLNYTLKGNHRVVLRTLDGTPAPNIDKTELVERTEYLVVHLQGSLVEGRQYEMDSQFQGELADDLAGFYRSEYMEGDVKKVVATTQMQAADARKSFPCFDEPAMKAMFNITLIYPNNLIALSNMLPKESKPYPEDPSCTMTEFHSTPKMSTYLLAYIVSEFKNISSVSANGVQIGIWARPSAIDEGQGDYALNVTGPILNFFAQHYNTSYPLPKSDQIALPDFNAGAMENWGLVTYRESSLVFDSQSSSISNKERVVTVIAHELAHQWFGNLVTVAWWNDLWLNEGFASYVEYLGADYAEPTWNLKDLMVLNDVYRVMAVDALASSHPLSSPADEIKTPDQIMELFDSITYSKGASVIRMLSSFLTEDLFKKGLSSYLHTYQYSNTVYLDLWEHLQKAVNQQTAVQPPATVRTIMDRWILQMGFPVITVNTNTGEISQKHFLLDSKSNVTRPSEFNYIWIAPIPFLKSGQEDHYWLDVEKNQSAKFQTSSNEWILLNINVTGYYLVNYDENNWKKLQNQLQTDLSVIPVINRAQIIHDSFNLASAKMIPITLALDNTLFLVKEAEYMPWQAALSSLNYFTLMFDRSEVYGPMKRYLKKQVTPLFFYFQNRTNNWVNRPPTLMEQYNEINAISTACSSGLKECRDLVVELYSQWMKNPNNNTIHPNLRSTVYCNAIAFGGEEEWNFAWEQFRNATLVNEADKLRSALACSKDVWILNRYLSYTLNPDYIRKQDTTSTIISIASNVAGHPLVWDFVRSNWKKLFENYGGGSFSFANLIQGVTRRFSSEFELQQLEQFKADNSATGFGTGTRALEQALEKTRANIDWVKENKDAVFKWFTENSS

HUVEC = test: Antiangiogenesis activity against HUVEC assessed as decrease in capillary tubular structure formation at 25 ug/ml after 8 hrs by microscopic analysis; assay type: functional, cell-based; conditions: Homo sapiens
ES2 [12] = test: Inhibition of human ES2 cell invasion at 15 to 150 uM after 8 hrs by Matrigel invasion assay; assay type: functional, cell-based
Aminopeptidase N [13] = molecular target: T2, Aminopeptidase N; test: Inhibition of mouse APN

Row | SMILES | pIC50 (Aminopeptidase N [1]) | inhibition at 24 h, 5 ug/ml [3] [%] | inhibition at 24 h, 50 ug/ml [6] [%] | pIC50 [7] | pIC50 (Aminopeptidase N [8]) | further results
1 | CC(C)C[C@H](NC(=O)Nc1ccc(F)cc1)C(=O)NO | 5.60 | – | – | – | – | –
2 | CC(C)C[C@H](NC(=O)Nc1cccc2ccccc12)C(=O)NO | 7.00 | < 1 | 3.63 | < 3.00 | 6.32 | inhibition (ES2 [2]): Active; Activity (B16-BL6 [4]): Active; GI50 at 24 h [5]: > 500 µM; inhibition (ES2 [9]): Dose-dependent effect; Activity (B16-BL6 [10]): Active; pIC50 (Aminopeptidase N [11]): 5.65; Activity (HUVEC): Active
3 | O=C(NCc1ccccc1)N[C@H](C(=O)NO)c1ccccc1 | 6.01 | – | – | – | – | –
4 | CC(C)C[C@H](NC(=O)[C@@H](O)[C@H](N)Cc1ccccc1)C(=O)O [UBENIMEX] | – | < 1 | 2.89 | 3.56 | – | inhibition (ES2 [2]): Active; Activity (B16-BL6 [4]): Active; GI50 at 24 h [5]: > 500 µM; inhibition (ES2 [12]): Active; pIC50 (Aminopeptidase N [11]): 4.63; Activity (HUVEC): Active; pKi (Aminopeptidase N [13]): 5.52
5 | O=C(Nc1ccccc1)N[C@H](C(=O)NO)c1ccccc1 | 5.23 | – | – | – | – | –
6 | O=C(NCCc1ccccc1)N[C@H](C(=O)NO)c1ccccc1 | 5.72 | – | – | – | – | –
7 | CC(C)C[C@H](NC(=O)NCc1cccs1)C(=O)NO | 6.18 | – | – | – | – | –
8 | CC(C)C[C@H](NC(=O)NCc1cccc(F)c1)C(=O)NO | 6.16 | < 1 | 2.81 | < 3.00 | 5.52 | –
9 | COc1ccc(NC(=O)N[C@@H](CC(C)C)C(=O)NO)cc1 | 6.24 | < 1 | 6.85 | < 3.00 | 5.19 | –
10 | COc1ccccc1CNC(=O)N[C@@H](CC(C)C)C(=O)NO | 6.24 | < 1 | 3.29 | < 3.00 | 5.96 | –
11 | Cc1ccc(CNC(=O)N[C@H](C(=O)NO)c2ccccc2)cc1 | 5.79 | – | – | – | – | –
12 | CC(C)C[C@H](NC(=O)Nc1ccc(-c2ccccc2)cc1)C(=O)NO | 5.68 | – | – | – | – | –
13 | Cc1ccc(CNC(=O)N[C@@H](CC(C)C)C(=O)NO)cc1 | 6.39 | < 1 | 1.83 | < 3.00 | 5.82 | –
14 | CC[C@H](C)[C@H](NC(=O)NCCCCc1ccccc1)C(=O)NO | < 5.00 | – | – | – | – | –
15 | O=C(NCCCc1ccccc1)N[C@H](C(=O)NO)c1ccccc1 | 5.66 | – | – | – | – | –
16 | COc1ccc(CNC(=O)N[C@H](C(=O)NO)c2ccccc2)cc1 | 5.99 | – | – | – | – | –

Row | SMILES | pIC50 (Aminopeptidase N [1]) | inhibition at 24 h, 5 ug/ml [3] [%] | inhibition at 24 h, 50 ug/ml [6] [%] | pIC50 [7] | pIC50 (Aminopeptidase N [8]) | further results
17 | CC(C)C[C@H](NC(=O)OCCCc1ccccc1)C(=O)NO | < 5.00 | – | – | – | – | –
18 | O=C(NCCCCc1ccccc1)N[C@@H](Cc1ccccc1)C(=O)NO | 5.55 | – | – | – | – | –
19 | CC(C)C[C@H](NC(=O)NCCCc1ccccc1)C(=O)NO | 5.47 | – | – | – | – | –
20 | Cc1ccc(NC(=O)N[C@@H](CC(C)C)C(=O)NO)cc1 | 6.48 | < 1 | 1.78 | 3.24 | 6.03 | inhibition (ES2 [2]): Active; inhibition (ES2 [9]): Dose-dependent effect
21 | CC(C)C[C@H](NC(=O)NCc1ccco1)C(=O)NO | 5.64 | – | – | – | – | –
22 | COc1ccc(CNC(=O)N[C@@H](CC(C)C)C(=O)NO)cc1 | 6.08 | < 1 | < 1 | < 3.00 | 5.16 | –
23 | CC(C)C[C@H](NC(=O)NCCCCc1ccccc1)C(=O)NO | 5.64 | – | – | – | – | –
24 | O=C(NCc1ccc(F)cc1)N[C@H](C(=O)NO)c1ccccc1 | 5.30 | – | – | – | – | –
25 | CC(C)C[C@H](NC(=O)NCc1cccc2ccccc12)C(=O)NO | 7.30 | < 1 | 6.67 | 3.26 | 6.38 | inhibition (ES2 [2]): Active; Activity (B16-BL6 [4]): Active; GI50 at 24 h [5]: > 500 µM; inhibition (ES2 [9]): Dose-dependent effect; Activity (B16-BL6 [10]): Active; pIC50 (Aminopeptidase N [11]): 5.74; Activity (HUVEC): Active
26 | O=C(NCCCCc1ccccc1)N[C@H](C(=O)NO)c1ccccc1 | 5.26 | – | – | – | – | –
27 | COc1cccc(CNC(=O)N[C@@H](CC(C)C)C(=O)NO)c1 | 6.54 | < 1 | < 1 | < 3.00 | 6.10 | inhibition (ES2 [2]): Active; Activity (B16-BL6 [4]): Active; GI50 at 24 h [5]: > 500 µM; inhibition (ES2 [9]): Dose-dependent effect; Activity (B16-BL6 [10]): Active; pIC50 (Aminopeptidase N [11]): 5.25; Activity (HUVEC): Active
28 | CSCC[C@H](NC(=O)NCCCc1ccccc1)C(=O)NO | 5.15 | – | – | – | – | –
29 | CC(C)C[C@H](NC(=O)NCc1ccc(F)cc1)C(=O)NO | 6.14 | < 1 | 11.9 | < 3.00 | 6.04 | –
30 | CC(C)C[C@H](NC(=O)Cc1ccccc1)C(=O)NO | < 5.00 | – | – | – | – | –
31 | O=C(Nc1ccc(F)cc1)N[C@H](C(=O)NO)c1ccccc1 | 5.00 | – | – | – | – | –
32 | CC(C)C[C@H](NC(=O)Nc1ccccc1)C(=O)NO | 5.57 | – | – | – | – | –
